These results are taken from ChEMBL document CHEMBL3507680, “University of Dundee, Gates Library screen for HepG2 cell viability”.

Each structure is given as a SMILES string.

The series is described as follows: Human HepG2 cell viability assay in 384 well format. The format is toxicity, cell-based. The arrangement: dose 125 nL, time 70.5 hour; cytotoxicity at 70.5 h: concentration not given beside the values. Conditions: HepG2 cells, read-out: Inhibition.
With `COc1cccc(CNC(=O)N2CCCC(Cn3cc(CN)nn3)C2)c1` (stereo unspecified), the cytotoxicity at 70.5 h was -5.66%.
As for `CNc1nc(C(=O)N2CCCn3nc(C(=O)N4CCCC4)cc3C2)cs1`, the cytotoxicity at 70.5 h is -11.2%.
Next, `CCN1CCN(C(=O)c2ccc3c(c2)CCCN3)[C@H]2CS(=O)(=O)C[C@H]21`: -5.32%; `CCN1CC2(CCC1=O)CCN(c1ccc(C(C)=O)cn1)CC2`: -3.76%; `CN(Cc1ccccc1)c1ncccc1CNC(=O)c1ccnn1C`: -10.4%.
Next, `CCN(C)C[C@H]1CC[C@@H](Cc2ccc3c(cnn3C)c2)O1`: 11.5%; `CCC[C@H]1CN(Cc2ccc3c(c2)OCCO3)C[C@@H]1NC(=O)COC`: 3.4%; `CCN1CC2(CCC1=O)CCN(Cc1cccc(C#N)c1)CC2`: -4.47%.
Then `CNS(=O)(=O)CCNCC1(O)CCCN(CCC2CCCCC2)C1=O` (stereo unspecified), with -0.181%; and `CC(=O)NC1CCN(c2ncnc3c2c(C)nn3C)C1` (stereo unspecified), with -7.17%; and `CC(C)[C@H]1COC(=O)N1Cc1nccn1C(C)C`, with -4.48%.
As to `CCc1nc(NC2CCCN(C(=O)c3cccs3)C2)c2cnn(C)c2n1` (stereo unspecified), the cytotoxicity at 70.5 h was 7.73%.
`CC(c1cccc(-c2nccn2CCc2ccccn2)c1)N(C)C` (stereo unspecified): the cytotoxicity at 70.5 h is -7.37%.
As for `COc1cccc(N2CCN(Cc3nccn3C(C)C)CC2=O)c1`, the cytotoxicity at 70.5 h was -2.87%.
Next, `CN(CCCSc1ccccc1)C(=O)Cn1ncc(N(C)C)cc1=O`: -7.24%.
Consider `CC1(C)Cc2nc(C(C)(C)C)ncc2C(NC(=O)CN)C1` (stereo unspecified), for which the cytotoxicity at 70.5 h is -10.1%.
Then `Cc1cccc2c1nc(CCO)n2-c1ccc(C(=O)N2CCOCC2)o1`, with -1.12%; and `Cn1ccnc1SCCNC(=O)c1c[nH]nc1C1CCCCC1`, with -8.06%.
On to `Cc1cc(NCCc2cnccn2)nc(-c2ccccc2O)n1`, for which the cytotoxicity at 70.5 h was -12.4%.
Next, `Cc1[nH]ccc1C(=O)N1CCC2(CC1)c1nc[nH]c1CCN2S(C)(=O)=O`: -4.51%; `Cc1cnc(CNCc2cn(CCN3CCSCC3)nc2C)cn1`: 24.8%.
Then `CNC(=O)c1nc(CN2CCOC(C(F)(F)F)C2)no1` (stereo unspecified), with 28.6%; and `Cc1cc(N2CCC(n3cc(CN4CCSCC4)nn3)CC2)ccn1`, with 1.06%.
Next, `CCc1cnc(C)nc1NCCN1CCOCC1`: -0.575%; `CN(CC(O)CO)c1nc(-c2cccnc2)nc2c1CCNC2` (stereo unspecified): -17.2%; `O=C(CCc1cn[nH]c1)N1C[C@@H](CN2CCCCCC2)[C@@H](CO)C1`: -8.48%.
For the molecule `CC(C)C[C@@H](CO)n1cc(-c2cnc(-c3ccco3)nc2)nn1`, the cytotoxicity at 70.5 h was -6.45%.
As for `CCC[C@H]1CN(Cc2ccc(N(C)C)nc2)C[C@@H]1NS(=O)(=O)CC`, the cytotoxicity at 70.5 h is -1.04%.
Next, `CC(C)C(=O)NCC(=O)N1CCC2(CC1)c1ccccc1[C@@H](N)[C@@H]2O`: 13.2%.
Then `CC(CCn1cccn1)Nc1ccc(-c2nccn2C)nn1` (stereo unspecified), with 22.7%; and `Cc1cc(C)nc(N2CCN(Cc3cc4n(n3)CCNC4)CC2)n1`, with -8.76%.
Then `CCN(Cc1cnn(CC)c1)C(=O)Cn1c(=O)c(C)nc2ccccc21`, with -17.7%; and `O=C(O)c1cc(-c2cccnc2)cc(S(=O)(=O)NCc2ccccn2)c1`, with -5.41%; and `CCn1ncnc1C(C)Nc1cc(C2CCNCC2)nc(C)n1` (stereo unspecified), with 26.8%.
For the molecule `COC1CCN(C(=O)Cn2ncc(N3CCCCC3)cc2=O)C1` (stereo unspecified), the cytotoxicity at 70.5 h was -2.54%.
As for `Cc1[nH]c2c(F)cccc2c1CC(=O)NCCCNc1cccnc1`, the cytotoxicity at 70.5 h is -11.8%.
For the molecule `Cc1ccc(C)c(OCCNC(=O)C2CCOC2)c1` (stereo unspecified), the cytotoxicity at 70.5 h was -1.02%.
`CC(c1cccc(-c2ncccc2F)c1)N(C)C` (stereo unspecified): the cytotoxicity at 70.5 h is -14.8%.
Turning to `O=C(c1ccc(C2CCCN2)s1)N1CCN(C(=O)N2CCOCC2)CC1` (stereo unspecified), the cytotoxicity at 70.5 h was -6.24%.
Next, `CC(C)c1cc(N[C@H](C(N)=O)C(C)C)n2nccc2n1`: -4.75%.
As for `COc1cccc(Cn2ncnc2CNC(C)=O)c1`, the cytotoxicity at 70.5 h was -10.5%.
For `CC(=O)NCC(=O)N1CCc2[nH]c(-c3ccccc3)nc2C1`, the cytotoxicity at 70.5 h is -1.22%.
As for `CCSCCNC(=O)Nc1cc(C(=O)N2CCOCC2)ccc1Cl`, the cytotoxicity at 70.5 h is -3.96%.
Next, `CNS(=O)(=O)c1ccc(CN2CCN3CCNC(=O)C3C2)cc1` (stereo unspecified): -6.1%; `COC(=O)c1cc(OCC2CCC2)cc(C(=O)N[C@@H]2CCCNC2)c1`: -18.2%; `COc1cccc(OC2CN(C(=O)C3CCCN(C(=O)N(C)C)C3)C2)c1` (stereo unspecified): 26.8%.
Consider `CSCc1noc(CN2CCC3(CC2)CC(=O)N(CC=C(C)C)C3)n1`, for which the cytotoxicity at 70.5 h was -11.8%.
Then `CC(c1ccc2c(c1)OCCO2)N(C)C(=O)c1ccnnc1` (stereo unspecified), with -5.69%; and `COc1ccc(-n2ccnc2-c2cnc(C(C)C)nc2)cc1C(=O)O`, with -3.39%.
As for `OCC1(CC2CC2)CCCN(Cc2ccc(C(F)(F)F)nc2)C1` (stereo unspecified), the cytotoxicity at 70.5 h is -6.45%.
Then `CC(=O)N1C[C@@H]2CC[C@H](C1)N(S(=O)(=O)c1ccc(C#N)cc1Cl)C2`, with -12.7%; and `Cc1ccc(-c2ncc(C(=O)N3CCC[C@H](N)C3)c(O)n2)cc1`, with -6.29%.
With `Cc1ccc(NC2CCCN(C3Cc4ccccc4C3)C2)nn1` (stereo unspecified), the cytotoxicity at 70.5 h is -4.1%.
Then `Cc1nc(-c2cccnc2)ncc1C(=O)N1CCC(C(C)N(C)C)CC1` (stereo unspecified), with -2.91%; and `CCN1CCC(N2CCN(c3cc(-c4nc(C)no4)ccn3)CC2)CC1`, with 11.7%; and `COC[C@]1(O)CCN(C2CCN(c3ccc(OC)cc3)CC2)CC1(C)C`, with 23.9%.
Take `Cc1cc(C)n(C2CCN(c3ncnc4sc5c(c34)CCNC5)C2)n1` (stereo unspecified): the cytotoxicity at 70.5 h was -18.5%.
Next, `O=c1c2cccc(C(F)(F)F)c2ncn1C1CCNC1` (stereo unspecified): -13.6%; `c1ccc(Oc2ccc(OC34CCCN(CC3)C4)cc2)cc1` (stereo unspecified): -9.13%.
Then `O=C(CC1CCc2ccccc21)NCCSc1ccccn1` (stereo unspecified), with 11.8%; and `COc1ccccc1CN(Cc1cccc(C)c1)C(=O)[C@@H](N)CC(=O)O`, with 8.65%; and `CN(C)C(=O)CN1C[C@@H]2CC[C@H](C1)N(Cc1ccc(Cl)cc1Cl)C2`, with 2.51%.
For the molecule `Cc1noc(-c2ccc(N3CCC[C@H]3CO)nc2)n1`, the cytotoxicity at 70.5 h is -0.652%.
Then `CCc1nnsc1C(=O)N1CCCC(c2nc3ccccc3[nH]2)C1` (stereo unspecified), with -14.3%; and `CN(C)C(=O)N1CC[C@]2(O)CCN(C(=O)c3ccc(C#N)nc3)C[C@@H]2C1`, with 3.74%; and `O=C(NCCOCCO)[C@@]12CNC[C@@H]1CN(C1CCCC1)C2`, with 2.24%.
`O=C(c1cnc(Nc2ccccc2)nc1)N1CCC2(CCNCC2)CC1`: the cytotoxicity at 70.5 h is -13.5%.
Then `COc1ccccc1-c1ncc(CN2CCC3(CCN(C)C3)CC2)cn1`, with -8.29%; and `O=C(N[C@@H]1CCN(C(=O)c2cc[nH]c2)C[C@H]1O)c1ccccn1`, with -0.892%; and `O=C(CCNC(=O)c1ccccc1F)NCCNc1cccnc1`, with 1.94%.
Then `CCc1nc2ccccc2n1C(CC)C(=O)N(C)Cc1nc(C)c[nH]1` (stereo unspecified), with 21.7%; and `Cn1cnnc1CC1CCN(Cc2c(Cl)cncc2Cl)CC1`, with 16.9%; and `CCNc1ncc(C(=O)NCCc2ccc(C)c(C)c2)cn1`, with -4.37%.
As for `CCn1ncc2c1NC(=O)CC2c1cnc(-c2ccccn2)nc1` (stereo unspecified), the cytotoxicity at 70.5 h was -2.85%.
Regarding `Cc1ncoc1C(=O)N1CCc2[nH]nc(-c3ccc4c(c3)OCO4)c2C1`, the cytotoxicity at 70.5 h was 16.8%.
Regarding `CS(=O)(=O)c1ccc(CC(=O)N2CCN3CCNC(=O)C3C2)cc1` (stereo unspecified), the cytotoxicity at 70.5 h is -2.91%.
Then `CN(Cc1noc2c1CCCC2)C(=O)Nc1cncc(F)c1`, with -7.85%; and `CC(C)CNC(=O)CN1CCCC(c2ccc(C(=O)O)cc2)C1` (stereo unspecified), with -6.21%.
Regarding `CN(Cc1ccccc1-n1cccn1)c1nc(N)nc2c1CCNCC2`, the cytotoxicity at 70.5 h stood at 4.77%.
With `Cc1ccccc1N1CCN(C(=O)c2cnc(C3CC3)nc2)C(C)C1` (stereo unspecified), the cytotoxicity at 70.5 h is -2.79%.
As to `Cc1ncc(CN2CCC3(CC2)CC(=O)N(C)C3)cn1`, the cytotoxicity at 70.5 h worked out at 4.13%.
For `Cc1oc(C(C)C)cc1C(=O)N1C[C@H]2CC[C@@H]1CN(S(=O)(=O)N(C)C)C2`, the cytotoxicity at 70.5 h was -7.52%.
In the case of `O=C(c1ccccn1)N1C[C@@H]2CC[C@H](C1)N(C(=O)Cc1cccs1)C2`, the cytotoxicity at 70.5 h is -10%.
Then `CCc1cn[nH]c1C1CCCN(C(=O)c2ncoc2C(C)C)C1` (stereo unspecified), with -2.87%; and `COc1ccc(CN2C[C@@H]3CC[C@H](C2)N(S(=O)(=O)C2CC2)C3)cc1`, with -5.41%; and `Cc1ccc2oc(=O)n(CC(=O)N3CCC4(CC3)CN(C)C(=O)O4)c2c1`, with 13.2%.
On to `COc1ccc(Cl)cc1S(=O)(=O)N1C[C@@H]2CC[C@H](C1)N(C)C2=O`, for which the cytotoxicity at 70.5 h amounted to 6.39%.
Then `CCCn1nc(C)c(CNC(=O)c2snnc2C)c1C`, with -13.1%; and `O=C(O)C1(n2ccc(-c3ccco3)n2)CCN(Cc2ccccn2)CC1`, with -4.75%; and `CCC(CC)n1nc(C)cc1NC(=O)C1CCOC1` (stereo unspecified), with -6.47%.
With `COc1ccccc1[C@@H]1CN(Cc2ccc3nsnc3c2)C[C@H]1C(=O)O`, the cytotoxicity at 70.5 h was -5.24%.
Next, `N[C@@H]1c2ccccc2C2(CCN(C(=O)c3ccc(CO)o3)CC2)[C@H]1O`: -5.57%.
Consider `Cc1nccn1Cc1nnc(C2CCN(c3ccncc3F)CC2)n1C`, for which the cytotoxicity at 70.5 h is 17.7%.
As for `O=C(O)C(c1ccc2c(c1)OCO2)N1CCCCCC1` (stereo unspecified), the cytotoxicity at 70.5 h was -1.77%.
On to `Cc1cc(NCc2cc3n(n2)CCCN(C(=O)C2CCC2)C3)ncn1`, for which the cytotoxicity at 70.5 h is 0.388%.
Regarding `CN1CCN(CCCNCc2cc(O)c3cc(F)ccc3n2)CC1`, the cytotoxicity at 70.5 h was -4.99%.
